The results in this text go back to PubChem BioAssay AID1361 (SRMLSC, 2008).

The experiment can be described thus: mitochondrial fusion inhibitors, confirmation, cell-based, chemical genetic, wild-type and mutant (AID 1361). Conditions: Cell-based mitochondrial fusion phenotype, imaging.
[1] abbreviates: mutant cells, measured here: mutant cell line IC50.

The structures appear in SMILES notation. Calls of active or inactive are those of the source. The rule behind the calls is not given here. A value given as a limit tells only on which side of the number the result lay.

As to `O=C(Nn1c(-c2ccccc2)nc2ccccc2c1=O)C1CCC1`, the IC50 by setting is: (WT cells) > 25 µM (inactive); under setting [1], greater than 25 µM.

Take `COc1ccc(NP(=O)(Oc2ccc(Cl)cc2)Oc2ccc(Cl)cc2)cc1OC`: the IC50 is 12.6 µM (WT cells) and greater than 25 µM under setting [1].

In the case of `NC(=O)c1ccc(NC(=O)COC(=O)c2c3c(nc4ccccc24)/C(=C\c2ccc4c(c2)OCO4)CCC3)cc1`, the IC50 (WT cells) was 8.77 µM and the IC50 under setting [1] was greater than 25 µM.

Regarding `O=C(c1cc(-c2ccccc2)nc2ccccc12)N1CCCc2ccccc21`, the IC50 is, setting by setting: (WT cells) 13.7 µM; under setting [1], greater than 25 µM.

Turning to `Cc1ccc(C(C(=O)NC2CCCCC2)N(Cc2ccco2)C(=O)Cc2c[nH]c3ccccc23)o1` (centres undefined), the IC50 runs as follows: (WT cells) 21.2 µM; under setting [1], greater than 25 µM.

On to `O=C(CSc1ncn[nH]1)NCc1ccccc1`, for which the IC50 runs as follows: (WT cells) > 25 µM (inactive); under setting [1], greater than 25 µM.

On to `Clc1ccc(C2=Nn3c(nnc3-c3cc(-c4ccccc4)n[nH]3)SC2)cc1`, for which the IC50 was > 25 µM (inactive) (WT cells) and greater than 25 µM under setting [1].

Turning to `Cc1ccc(-c2nc3cc(Br)cnc3nc2-c2ccc(C)cc2)cc1`, the IC50 is, setting by setting: (WT cells) 9.24 µM; under setting [1], greater than 25 µM.

For `CC(C)N=c1scc(-c2cccs2)n1/N=C/c1ccc(O)c(O)c1O`, the IC50 (WT cells) was > 25 µM (inactive) and the concentration for half-maximal inhibition (IC50) under setting [1] was greater than 25 µM.

As to `Cc1cc(C(=O)CSc2nnc(-c3ccc(Cl)cc3)n2CC2CCCO2)c(C)n1C` (centres undefined), the IC50 was > 25 µM (inactive) (WT cells) and greater than 25 µM under setting [1].

On to `CCCCCC(=O)O[C@]1(C(C)=O)CC[C@H]2[C@@H]3CCC4=CC(=O)CC[C@]4(C)[C@H]3CC[C@@]21C`, for which the IC50 by setting is: (WT cells) 12.7 µM; under setting [1], greater than 25 µM.

`Cc1cc(=O)n2[nH]c(-c3ccc(F)cc3)cc2n1`: the IC50 reads like this: (WT cells) > 25 µM (inactive); under setting [1], greater than 25 µM.

Consider `CCOC(=O)c1sc(NC(=O)/C=C/c2cnn(C)c2C)c(C(=O)OC(C)C)c1C`, for which the IC50 (WT cells) is > 25 µM (inactive) and the IC50 under setting [1] is greater than 25 µM.

Consider `CCCCc1cc2c(s1)CCCC/C2=N/O`, for which the IC50 is, setting by setting: (WT cells) > 25 µM (inactive); under setting [1], greater than 25 µM.

Take `CCN(Cc1cc2cc(C)ccc2[nH]c1=O)C(=O)c1cccc(OC)c1`: the IC50 was > 25 µM (inactive) (WT cells) and greater than 25 µM under setting [1].

As to `N=c1c2c(n(Cc3ccc(F)cc3)c3c1CCC3)CCC2`, the IC50 was 11.2 µM (WT cells) and greater than 25 µM under setting [1].

Turning to `CCN(c1ccccc1)S(=O)(=O)c1cnc[nH]1`, the IC50 reads like this: (WT cells) > 25 µM (inactive); under setting [1], greater than 25 µM.

Regarding `COc1ccc(OC)c(-c2cc(C3CCN(c4cc(Cl)nc(N)n4)CC3)[nH]n2)c1`, the IC50 reads like this: (WT cells) > 25 µM (inactive); under setting [1], greater than 25 µM.

`Cc1cccc(NC(=S)N/N=C/c2ccc3c(c2)OCO3)c1`: the IC50 is, setting by setting: (WT cells) > 25 µM (inactive); under setting [1], greater than 25 µM.

Regarding `CC(C)c1ccc(NC(=O)c2sccc2-n2cccc2)cc1`, the IC50 was > 25 µM (inactive) (WT cells) and greater than 25 µM under setting [1].

`CC(C)/C(=N/Nc1ccccc1[N+](=O)[O-])c1ccccc1`: the IC50 by setting is: (WT cells) > 25 µM (inactive); under setting [1], greater than 25 µM.

Take `O=C(N/N=C/c1c[nH]c2ccccc12)c1[nH]c2ccc(Br)cc2c1-c1ccccc1`: the IC50 was 3.58 µM (WT cells) and 14.9 µM under setting [1].

In the case of `CCCOC(=O)CN1C(=O)c2ccccc2C1=O`, the IC50 reads like this: (WT cells) > 25 µM (inactive); under setting [1], greater than 25 µM.

Take `C/C(=N\N1CCCCC1c1cccnc1)c1c(O)n(C2CCCCC2)c(=S)[nH]c1=O` (centres undefined): the IC50 (WT cells) was > 25 µM (inactive) and the IC50 under setting [1] is greater than 25 µM.

In the case of `Cc1nc2ccccc2c2oc(C(=O)Nc3ccc(C(C)C)cc3)cc12`, the IC50 (WT cells) was > 25 µM (inactive) and the IC50 under setting [1] was greater than 25 µM.

With `Cc1cccc(COCC(CC(C)C)N2CCN(C(=O)c3ccc(C(C)(C)C)cc3)CCC2=O)c1` (centres undefined), the IC50 was 14.7 µM (WT cells) and greater than 25 µM under setting [1].

On to `NC(=S)n1[nH]c(-c2ccc([N+](=O)[O-])cc2)c(N=Nc2ccc(Cl)cc2)c1=O`, for which the half-maximal inhibitory concentration (IC50) runs as follows: (WT cells) 8.34 µM; under setting [1], greater than 25 µM.

As to `CC1(C)CC(C(CCN(Cc2ccccc2)C(=O)c2ccco2)c2ccc(F)cc2)CCO1` (centres undefined), the IC50 by setting is: (WT cells) 16.8 µM; under setting [1], greater than 25 µM.

For the compound `Cc1ccc(C2CN(C)C3(C(=O)Nc4ccccc43)C23COc2ccccc2C3=O)cc1` (centres undefined), the concentration for half-maximal inhibition (IC50) runs as follows: (WT cells) 11 µM; under setting [1], 23.7 µM.

Consider `Cc1cccc(-n2ncc3c(N4CC(C)CC(C)C4)ncnc32)c1` (centres undefined), for which the IC50 is, setting by setting: (WT cells) 14.6 µM; under setting [1], 20 µM.

On to `Cc1[nH]c2ccccc2c1/C=N/NC(=O)C1CC1(c1ccccc1)c1ccccc1` (centres undefined), for which the IC50 is 7.93 µM (WT cells) and greater than 25 µM under setting [1].

For `COc1ccc(NC(=O)CN(c2ccc(C)cc2)S(C)(=O)=O)c(OC)c1`, the IC50 is, setting by setting: (WT cells) > 25 µM (inactive); under setting [1], greater than 25 µM.

As for `OC(CNCc1ccc(Cl)cc1)(c1ccccc1)c1ccc(F)cc1` (centres undefined), the IC50 is > 25 µM (inactive) (WT cells) and greater than 25 µM under setting [1].

Turning to `Cc1ccc(C)c(N2CCN(C(=O)Cc3cn(C)c4ccccc34)CC2)c1`, the IC50 by setting is: (WT cells) 21.9 µM; under setting [1], greater than 25 µM.

`O=C(Nc1ccc(F)cc1)c1ccccc1Oc1ccc(C(F)(F)F)cc1[N+](=O)[O-]`: the half-maximal inhibitory concentration (IC50) by setting is: (WT cells) 17.5 µM; under setting [1], greater than 25 µM.

Take `COc1cc(/C=N/n2cnnc2)ccc1OCc1ccccc1`: the IC50 (WT cells) was > 25 µM (inactive) and the IC50 under setting [1] is greater than 25 µM.

`CSc1ccc(Cl)c(C(=O)NCCOc2cc(C)ccc2C(C)C)c1`: the IC50 is 12.9 µM (WT cells) and greater than 25 µM under setting [1].

With `COC(=O)C1CN(C#N)N(c2ccc(Cl)cc2)C12c1ccccc1-c1ccccc12` (centres undefined), the IC50 is, setting by setting: (WT cells) 2.48 µM; under setting [1], greater than 25 µM.

In the case of `O=C(c1ccccc1)c1cc(Cl)ccc1N1C(=O)C=CC1=O`, the IC50 is, setting by setting: (WT cells) > 25 µM (inactive); under setting [1], greater than 25 µM.

In the case of `COc1ccc(-c2nnc(SCc3cc(C)cc(C)c3)o2)cc1`, the IC50 reads like this: (WT cells) 12.9 µM; under setting [1], greater than 25 µM.

For the compound `Cc1cccc(Cn2nc(-n3cccc3)c3c(C)cc(C)nc32)c1`, the IC50 is > 25 µM (inactive) (WT cells) and greater than 25 µM under setting [1].

With `CCOP(=O)(OCC)C(Nc1cccc(C(F)(F)F)c1)c1ccc(Br)cc1` (centres undefined), the IC50 runs as follows: (WT cells) 16.3 µM; under setting [1], greater than 25 µM.

For the compound `Cc1ccnc(NS(=O)(=O)c2ccc(N=CC3=C(O)CC(C)(C)CC3=O)cc2)n1`, the IC50 (WT cells) was > 25 µM (inactive) and the IC50 under setting [1] was greater than 25 µM.

For the compound `CCN1CCN(CCNC(=O)c2ccc(/C=C3\Sc4ccccc4N(Cc4ccccc4F)C3=O)cc2)CC1`, the IC50 is 18.9 µM (inactive) (WT cells) and greater than 12.5 µM under setting [1].

`C=CCOc1ccc2ccccc2c1CNCCCN1CCOCC1`: the IC50 is, setting by setting: (WT cells) > 25 µM (inactive); under setting [1], greater than 25 µM.

In the case of `COc1ccc(Br)cc1CN(C)CC(=O)Nc1ccccc1Cl`, the IC50 runs as follows: (WT cells) 19.8 µM; under setting [1], greater than 25 µM.

Take `O=[N+]([O-])c1ccccc1S(=O)(=O)NCCC1=CCCCC1`: the IC50 by setting is: (WT cells) > 25 µM (inactive); under setting [1], greater than 25 µM.

On to `CS(=O)(=O)N1CCc2cc(C(=O)N3CCOCC3)ccc21`, for which the IC50 is > 25 µM (inactive) (WT cells) and greater than 25 µM under setting [1].

As for `O=C(Nc1ccccc1)Nc1cc(OCC(F)(F)F)cc(OCC(F)(F)F)c1`, the half-maximal inhibitory concentration (IC50) by setting is: (WT cells) 16.3 µM; under setting [1], greater than 25 µM.

Consider `CC(=O)C(N=Nc1ccccc1)(Sc1nnc(-c2ccccc2)n1-c1ccccc1)C(C)=O`, for which the IC50 runs as follows: (WT cells) 6.6 µM; under setting [1], greater than 25 µM.

`Cc1cc(Br)c(OCc2ccc(C(=O)N/N=C3\CC4CC=CC34)cc2)c(Br)c1` (centres undefined): the IC50 is, setting by setting: (WT cells) 7.88 µM; under setting [1], 14.2 µM.

As to `Cc1cc(Cl)ccc1NC(=S)NCCC(c1ccccc1)c1ccccc1`, the IC50 runs as follows: (WT cells) 4.91 µM; under setting [1], greater than 25 µM.

In the case of `Cc1ccccc1Nc1scc(-c2ccc(Cl)cc2)[n+]1-c1ccccc1C`, the IC50 is, setting by setting: (WT cells) 8.24 µM; under setting [1], greater than 25 µM.

Take `Cc1cc(C(=O)Nn2c(C3CCCCC3)nc3ccccc3c2=O)ccc1[N+](=O)[O-]`: the IC50 was 16.7 µM (WT cells) and greater than 25 µM under setting [1].

As to `Cc1cccc2sc(NC(=O)c3ccc(NS(=O)(=O)c4cccs4)cc3)nc12`, the IC50 is > 25 µM (inactive) (WT cells) and greater than 25 µM under setting [1].

For the compound `COc1ccc(CCNS(=O)(=O)c2ccc(OC)cc2)cc1`, the IC50 reads like this: (WT cells) > 25 µM (inactive); under setting [1], greater than 25 µM.

With `N#CC(C#N)=c1ccc2c(c1)N1C3=C(CCCC3)CC3CCCCC31N=2` (centres undefined), the IC50 is, setting by setting: (WT cells) 3.41 µM; under setting [1], 7.81 µM.

With `CC(Oc1ccc2oc3ccccc3c2c1)C(=O)NC12CC3CC(CC(C3)C1)C2` (centres undefined), the IC50 was 9.61 µM (WT cells) and 15.7 µM under setting [1].

`CCOc1ccc(NS(=O)(=O)c2ccc(NC(=S)NC(=O)CC(C)C)cc2)cc1`: the IC50 was 14.3 µM (WT cells) and greater than 25 µM under setting [1].

As for `COc1ccc(C2c3c(ncn(Cc4ccco4)c3=N)Oc3ccc4ccccc4c32)cc1` (centres undefined), the IC50 runs as follows: (WT cells) 13.4 µM; under setting [1], greater than 25 µM.

Turning to `CCOC(=O)N1CCN(S(=O)(=O)c2ccc(C)c(C)c2)CC1`, the IC50 was > 25 µM (inactive) (WT cells) and greater than 25 µM under setting [1].

Regarding `C/C(=N\N=C(/N)SC1CC(=O)N(c2cccc(Cl)c2)C1=O)c1cccs1` (centres undefined), the IC50 is > 25 µM (inactive) (WT cells) and greater than 25 µM under setting [1].

Regarding `COc1ccc(Cc2nc3ccc(S(=O)(=O)N4CCOCC4)cc3[nH]2)cc1`, the IC50 runs as follows: (WT cells) > 25 µM (inactive); under setting [1], greater than 25 µM.

Regarding `Clc1cccc(NCc2nnc(SCc3ccc(Cl)cc3Cl)o2)c1`, the IC50 is, setting by setting: (WT cells) 10.6 µM; under setting [1], greater than 25 µM.

Take `Cc1cccc(N2CCN(C(c3ccccc3)c3nnnn3C(C)(C)C)CC2)c1C` (centres undefined): the IC50 (WT cells) is 9.14 µM and the IC50 under setting [1] is greater than 25 µM.

Turning to `N/C(Cc1ccccc1)=N\OC(=O)c1cccc2ccccc12`, the IC50 was 14.8 µM (inactive) (WT cells) and 14.6 µM under setting [1].

As for `COc1ccccc1CNC(=O)c1ccccc1OCc1ccc(F)cc1`, the IC50 is, setting by setting: (WT cells) 21.8 µM; under setting [1], greater than 25 µM.
